Data set [1] can be described thus: Oral pharmacokinetic study of Cit-Amp vs Lys-Amp (Example 13). As to conditions: for % Tmax: relative to Lys-Amp.
Data set [2] can be described thus: Intravenous pharmacokinetic study of d-amphetamine, hArg-Amp and Lys-Amp (Example 16). To be noted: for % Tmax: relative to d-amp.
A short description of data set [3]: Intranasal pharmacokinetic study of d-amphetamine, hArg-Amp and Lys-Amp (Example 15). To be noted: for % Tmax: relative to d-amp.
Data set [4] in a line: Oral pharmacokinetic study of Lys-Amp, Sar-Amp, hCit-Amp and hArg(NO2)-Amp (Example 14). To be noted: for Cmax: plasma d-amphetamine, n=5.
Data set [5] in a line: Pharmacokinetics of d-amphetamine after parenteral (intranasal, intravenous) administration of hArg-Amp (Example 1). To be noted: parental routes (intranasal, intravenous).
The nature of data set [6]: Average results of oral pharmacokinetic studies of hArg-Amp vs Lys-Amp (Table 3). As to conditions: relative to Lys-Amp.
Data set [7] can be described thus: Oral pharmacokinetic study of hArg-Amp vs Lys-Amp, plasma d-amphetamine by ELISA (Example 12). To be noted: relative to Lys-Amp.

What is called Cmax is the highest concentration seen after dosing.

Where only a bound is given, the exact number is not on record here.

With `C[C@@H](Cc1ccccc1)NC(=O)[C@@H](N)CCCNC(N)=O.Cl` [Cit-Amp, 1-citrulline-d-amphetamine hydrochloride], the “% Tmax” value in data set [1] came out at 25%.
Regarding `C[C@H](N)Cc1ccccc1` [d-amp, d-amphetamine], the “% Tmax” value in data set [2] (intravenous) and in data set [3] (intranasal) was 100% in each case. The Tmax was 5 min in data set [2] (male, Sprague-Dawley, rat, in vivo, iv, […]) and 5 min in data set [3] (male, Sprague-Dawley, rat, in vivo, inhaled or intranasal, […]).
Turning to `C[C@@H](Cc1ccccc1)NC(=O)[C@@H](N)CCCCNC(N)=N[N+](=O)[O-]` [hArg(NO2)-Amp, l-homoarginine(NO2)-d-amphetamine], the Cmax in data set [4] came to 59 ng/mL.
For `C[C@@H](Cc1ccccc1)NC(=O)[C@@H](N)CCCCN=C(N)N.Cl.Cl` [hArg-Amp, l-homoarginine-d-amphetamine dihydrochloride], the Tmax is 5 m in data set [2] (intravenous, plasma d-amphetamine) and 30 min in data set [3] (intranasal, plasma d-amphetamine). For the same molecule, the “% Tmax” value in data set [2] (intravenous) was 100%; in data set [3] (intranasal), 600%; in data set [6], 200-400%. Besides, in data set [5], the release of amphetamine was less than 25%.
In data set [4], “l-homocitrulline-d-amphetamine hydrochloride [hCit-Amp]” registered a Cmax of 57 ng/mL.
l-lysine-d-amphetamine [Lys-Amp]: the “% Tmax” value in data set [2] (intravenous) is given as 100%; in data set [4] (relative to Lys-Amp), 100%; in data set [3] (intranasal), 3600%; in data set [6], 100%; in data set [1], 100%; in data set [7], 100%. The Cmax in data set [4] turned out to be 54 ng/mL; in data set [1] (plasma d-amphetamine, n=5), 59 ng/mL.
Take sarcosine-d-amphetamine [Sar-Amp]: the peak concentration (Cmax) in data set [4] turned out to be 45 ng/mL.

The record behind these values is patent US20090239949A1, “Polar Hydrophilic Prodrugs of Amphetamine and Other Stimulants and Processes for Making and Using the Same” (priority 2007, published 2009).
